One experiment addresses T1, sTAAR365 T7.42V (Petromyzon marinus, UniProt A0A678XMK4, T298V).
T1 sequence (A0A678XMK4 1-365 T298V): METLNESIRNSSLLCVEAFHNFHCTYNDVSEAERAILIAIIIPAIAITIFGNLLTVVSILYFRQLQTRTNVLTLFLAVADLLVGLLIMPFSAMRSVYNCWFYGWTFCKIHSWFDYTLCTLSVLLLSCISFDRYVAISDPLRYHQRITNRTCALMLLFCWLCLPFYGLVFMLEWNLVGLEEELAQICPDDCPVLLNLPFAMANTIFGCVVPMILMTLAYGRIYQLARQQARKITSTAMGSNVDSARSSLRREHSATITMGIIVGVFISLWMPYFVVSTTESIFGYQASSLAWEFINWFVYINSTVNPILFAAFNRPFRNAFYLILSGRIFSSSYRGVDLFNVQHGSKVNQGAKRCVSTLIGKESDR

Another experiment has as its target T2, sTAAR365 T7.42A (Petromyzon marinus, UniProt A0A678XMK4, T298A).
T2 sequence (A0A678XMK4 1-365 T298A): T1 sequence (A0A678XMK4 1-365 T298V) with V298A

A further experiment addresses T3, mTAAR9 W7.40F (Mus musculus, UniProt Q5QD04, W298F).
T3 construct: expressed in transfected cells; host or cells: Hana3A (HEK293-derived)
T3 sequence (Q5QD04 1-348 W298F): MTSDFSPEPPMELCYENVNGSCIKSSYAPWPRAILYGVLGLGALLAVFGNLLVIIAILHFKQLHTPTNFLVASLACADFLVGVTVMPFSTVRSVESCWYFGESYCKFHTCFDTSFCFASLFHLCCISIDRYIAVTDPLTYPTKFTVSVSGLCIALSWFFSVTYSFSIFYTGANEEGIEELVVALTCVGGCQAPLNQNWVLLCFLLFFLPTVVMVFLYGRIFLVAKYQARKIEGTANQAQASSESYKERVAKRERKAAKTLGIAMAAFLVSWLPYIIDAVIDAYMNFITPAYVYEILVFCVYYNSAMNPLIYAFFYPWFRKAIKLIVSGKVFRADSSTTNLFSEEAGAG
Description: CRE-luciferase reporter assay, mTAAR9 mutant in Hana3A. It counts as cell-based. The settings on record: read-out: EC50 (mean ± S.D., n = 3).

A further experiment deals with T4, mTAAR9 W7.40Y (Mus musculus, UniProt Q5QD04, W298Y).
T4 construct: expressed in transfected cells; host or cells: Hana3A (HEK293-derived)
The experiment is described as above. The following applies: read-out: EC50 (mean ± S.D., n = 3). Type of experiment: cell-based.

The next experiment addresses sTAAR365 Y7.43Q (Petromyzon marinus, UniProt A0A678XMK4, Y299Q). Description: cell-based.
The next experiment addresses T5, mTAAR9 Y6.51W (Mus musculus, UniProt Q5QD04, Y274W).
T5 construct: expressed in transfected cells; host or cells: Hana3A (HEK293-derived)
T5 sequence (Q5QD04 1-348 Y274W): T3 sequence (Q5QD04 1-348 W298F) with Y274W, F298W
Put plainly: CRE-luciferase reporter assay, mTAAR9 mutant in Hana3A. The following applies: read-out: EC50 (mean ± S.D., n = 3). Type of experiment: cell-based.

A further experiment has as its target T6, sTAAR365 Y6.51L (Petromyzon marinus, UniProt A0A678XMK4, Y272L).
T6 sequence (A0A678XMK4 1-365 Y272L): T1 sequence (A0A678XMK4 1-365 T298V) with Y272L, V298T
The following applies: HEK293T, cAMP production.

The next experiment concerns sTAAR348. The settings on record: expressed in HEK293T cells; cited from earlier work.

Structures are written as SMILES. Where a chain is given by its changes, count along the chain named.

T4 sequence (Q5QD04 whole entry W298Y): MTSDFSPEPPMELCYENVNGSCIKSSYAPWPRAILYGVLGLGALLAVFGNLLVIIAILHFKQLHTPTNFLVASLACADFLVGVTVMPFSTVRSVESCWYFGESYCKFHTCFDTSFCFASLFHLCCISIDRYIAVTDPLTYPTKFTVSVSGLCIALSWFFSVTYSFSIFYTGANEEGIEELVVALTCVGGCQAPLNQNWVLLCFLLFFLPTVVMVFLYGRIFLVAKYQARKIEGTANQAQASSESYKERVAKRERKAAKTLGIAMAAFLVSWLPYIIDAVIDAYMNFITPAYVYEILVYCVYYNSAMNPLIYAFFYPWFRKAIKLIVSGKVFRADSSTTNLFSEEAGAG
Chain of sTAAR365 Y7.43Q (A0A678XMK4 whole entry Y299Q): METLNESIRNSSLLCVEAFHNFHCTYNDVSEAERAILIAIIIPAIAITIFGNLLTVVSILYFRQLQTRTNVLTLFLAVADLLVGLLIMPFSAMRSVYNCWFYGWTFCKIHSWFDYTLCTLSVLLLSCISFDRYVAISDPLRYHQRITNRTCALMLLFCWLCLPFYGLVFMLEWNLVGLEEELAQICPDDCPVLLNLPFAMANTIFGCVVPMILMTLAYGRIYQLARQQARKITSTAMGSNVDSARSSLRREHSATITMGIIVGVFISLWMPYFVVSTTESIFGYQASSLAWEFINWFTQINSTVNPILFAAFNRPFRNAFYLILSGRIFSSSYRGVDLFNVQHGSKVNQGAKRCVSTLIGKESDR

On to `NCCCCCN` [cadaverine], for which the “increase of EC50 vs wild-type sTAAR365” value at sTAAR365 T7.42V and at sTAAR365 T7.42A was “over three” throughout. For the same molecule, the EC50 on mTAAR9 W7.40F was 83 ± 35 µM; at mTAAR9 W7.40Y, 28 ± 8 µM; on sTAAR365 Y7.43Q it was 7 ± 0.3 µM; on mTAAR9 Y6.51W it was over 1000 µM.

As to `NCCCCN` [putrescine], the “EC50 (mean ± S.D., n = 3)” value on sTAAR365 Y6.51L was “loss”.

Consider `NCCCNCCCCNCCCN` [spermine], for which the “response of sTAAR348” value in the experiment with sTAAR348 is recorded as “responds”.

(Values after PMC8546428, “Convergent olfactory trace amine-associated receptors detect biogenic polyamines with distinct motifs via a conserved binding site” (The Journal of Biological Chemistry, 2021).)
